In ChEMBL document CHEMBL1201862, “PubChem BioAssay data set” (2004):
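Where inhibition never reached the appropriate level, the endpoint shown equals the highest concentration tested. Otherwise, values were interpolated linearly from a five-concentration, 48-hour dose response in 96-well plates. At the GI50, growth is halved.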 The source made the active and inactive calls. Cut-off read from the data, not from the text of the source: active = GI50 up to about 1.1 µM and inactive = higher.

Key:
Assay in all cases: growth of human tumour cells (NCI), 48 h
[1] = test system: DMS-273
[2] = test system: LXFL 529
[3] = test system: KM-20L2
[4] = test system: HOP-18
[5] = test system: M19-MEL
[6] = test system: DLD-1
[7] = test system: RXF 631
[8] = test system: XF498
[9] = test system: SNB-78

Measured: GI50

COC(=O)C1CC(C(=O)OC)c2nc3cc(C)c(C)cc3nc21 (stereo not given)
inactive: [1] > 100 µM | [2] > 100 µM | [3] > 100 µM | [4] 41.7 µM | [5] > 100 µM | [6] > 100 µM | [7] > 100 µM | [8] > 100 µM | [9] > 100 µM

CCOc1ccccc1/N=N/c1ccc2oc(=O)c(C(C)=O)cc2c1
inactive: [1] > 100 µM | [2] > 100 µM | [3] > 100 µM | [5] > 100 µM | [6] > 100 µM | [8] 30.1 µM | [9] 24.4 µM

O=[N+]([O-])c1cc(-c2nnc(S)[nH]2)ccc1O
inactive: [1] 67.6 µM | [2] > 100 µM | [3] > 100 µM | [5] 86.3 µM | [6] > 100 µM | [7] > 100 µM | [9] > 100 µM

C[N+](C)(C)CC1CCCC/C1=N\O (stereo not given)
inactive: [1] > 100 µM | [2] > 100 µM | [3] > 100 µM | [4] > 100 µM | [6] > 100 µM | [7] > 100 µM | [9] > 100 µM

CC(C)C1CNC2N1C(=O)C2(C)OCc1ccccc1 (stereo not given)
inactive: [1] > 100 µM | [2] > 100 µM | [3] > 100 µM | [5] > 100 µM | [6] > 100 µM

CN(C)CCCNc1ccnc2cccc([N+](=O)[O-])c12
inactive: [3] 11.5 µM | [9] 12.9 µM

O=C(O)C1OC(Oc2cc(O)c3c(=O)cc(-c4ccc(O)cc4)oc3c2)C(O)C(O)C1O (stereo not given)
inactive: [1] > 100 µM | [2] > 100 µM | [3] > 100 µM | [5] > 100 µM | [6] > 100 µM | [8] 33.6 µM | [9] > 100 µM

O=C(/C=C/c1c(O)ccc2ccccc12)c1cccc(O)c1
inactive: [1] > 63.5 µM | [2] > 83.6 µM | [3] > 100 µM | [4] 23 µM | [5] 17.5 µM | [6] > 100 µM | [8] > 100 µM | [9] > 100 µM

O=C1C2=C(c3ccccc31)C(c1ccc([N+](=O)[O-])cc1)NC(S)=N2 (stereo not given)
inactive: [1] 59.4 µM | [2] 41 µM | [3] > 100 µM | [5] 78.9 µM | [6] 69 µM | [7] > 100 µM | [8] 31.5 µM

COc1cc(NCC(C#N)C#N)ccc1/N=N/c1ccc(Cl)cc1
inactive: [1] 21.5 µM | [2] 18.3 µM | [3] 15.2 µM | [4] 21 µM | [5] 19.3 µM | [6] 29.4 µM | [7] 26.3 µM | [9] 36.7 µM

COC(=O)C1=CCON(c2ccccc2)C1c1ccccc1 (stereo not given)
inactive: [1] 56.5 µM | [2] 34.7 µM | [3] 69.8 µM | [4] > 100 µM | [5] 62.8 µM | [6] 39.1 µM | [8] 52 µM

O=c1cc(-c2ccccc2)[nH]c2cc(Cl)cc(Cl)c12
inactive: [1] 12.3 µM | [2] 67.8 µM | [4] 20.8 µM | [5] 35.5 µM | [6] > 100 µM

O=C1C2=C(c3ccccc31)C(c1ccccc1)NC(S)=N2 (stereo not given)
inactive: [1] 26.9 µM | [2] 26.2 µM | [3] 42 µM | [5] 67.9 µM | [6] 52.6 µM | [7] 43.2 µM | [8] 56 µM

COc1ccc2nc(-c3cccs3)cc(C(O)CN3CCSCC3)c2c1 (stereo not given)
inactive: [1] 19.5 µM | [2] 12.6 µM | [3] 21.6 µM | [4] 19.8 µM | [5] 22.8 µM | [6] 23.6 µM | [8] 16.3 µM

N#CNc1nc(C(=O)Nc2ccc(Cl)cc2)cc(-c2ccccc2)n1
inactive: [1] > 100 µM | [2] > 100 µM | [3] > 100 µM | [4] > 100 µM | [5] > 100 µM | [6] > 100 µM | [7] > 100 µM | [8] > 100 µM | [9] > 100 µM

O=C1c2c(nc3ccccc3c2-c2ccccc2)CN1Nc1ccccn1
inactive: [1] > 89.9 µM | [2] 51.9 µM | [5] > 100 µM | [6] > 100 µM | [7] 15.8 µM | [8] > 100 µM | [9] 11.5 µM

Cc1cc(Cl)ccc1NC1=NC(=O)C(CC(=O)Nc2ccc(Cl)cc2Cl)S1 (stereo not given)
inactive: [1] > 100 µM | [2] > 100 µM | [3] > 100 µM | [5] > 100 µM | [6] > 100 µM | [7] > 100 µM | [8] 38.1 µM | [9] > 100 µM

COc1cc2nc(-c3cccc(N(C)C)c3)cc(O)c2cc1OC
inactive: [1] 3.85 µM | [2] 5.22 µM | [3] 2.11 µM | [4] 3.27 µM | [5] 5.55 µM | [6] 4.5 µM | [8] 6.32 µM | [9] 5.83 µM

Nc1ccc2c(c1)C(=O)N(OS(=O)(=O)c1ccccc1)C2=O
inactive: [1] > 100 µM | [2] 82 µM | [3] > 100 µM | [4] > 100 µM | [5] > 100 µM | [6] 52.4 µM | [7] > 100 µM | [8] > 100 µM | [9] > 100 µM

Nc1ccc(O)c2c1C(=O)c1c(N)ccc(O)c1C2=O
inactive: [1] > 100 µM | [2] > 100 µM | [5] > 100 µM | [6] > 100 µM | [8] > 100 µM | [9] > 100 µM
